{"source": "patent US20090269394A1", "about": "“METHODS AND COMPOSITIONS FOR TREATING ONCHOMYCOSIS” (priority 2008, published 2009)", "key": {"[1]": {"system": "Trichophyton mentagrophytes", "test": "MIC/MFC microtiter broth dilution", "assay_type": "cell-based"}, "Epidermophyton floccosum [2]": {"system": "Epidermophyton floccosum", "test": "MIC/MFC microtiter broth dilution", "assay_type": "cell-based", "conditions": "n = 6 isolates; NB-002 as μg CPC/ml"}, "Trichophyton tonsurans": {"system": "Trichophyton tonsurans", "test": "MIC/MFC microtiter broth dilution", "assay_type": "cell-based"}, "Microsporum canis": {"system": "Microsporum canis", "test": "MIC/MFC microtiter broth dilution", "assay_type": "cell-based"}, "[3]": {"system": "Candida albicans isolates", "test": "MIC/MFC microtiter broth dilution", "assay_type": "cell-based", "conditions": "NB-002 as μg CPC/ml; for MIC90: Candida albicans, read-out: MIC90"}, "T. violaceum": {"system": "T. violaceum", "test": "MIC against species that cause tinea capitis", "assay_type": "cell-based", "conditions": "T. violaceum n = 10"}, "M. audouinii": {"system": "M. audouinii", "test": "MIC against species that cause tinea capitis", "assay_type": "cell-based", "conditions": "M. audouinii n = 10"}, "Acremonium spp.": {"system": "Acremonium spp.", "test": "MIC against rare onychomycosis pathogens (CLSI M 38-A)", "assay_type": "cell-based", "conditions": "5 isolates; NB-002 as μg CPC/ml", "from_the_text": "(§1) Methods: All fungi were from patients, many of which had onychomycosis or another tinea infection."}, "Alternaria spp.": {"system": "Alternaria spp.", "test": "MIC against rare onychomycosis pathogens (CLSI M 38-A)", "assay_type": "cell-based", "conditions": "3 isolates; NB-002 as μg CPC/ml", "from_the_text": "as §1"}, "Aspergillus spp.": {"system": "Aspergillus spp.", "test": "MIC against rare onychomycosis pathogens (CLSI M 38-A)", "assay_type": "cell-based", "conditions": "5 isolates; NB-002 as μg CPC/ml", "from_the_text": "as §1"}, "Chaetomium spp.": {"system": "Chaetomium spp.", "test": "MIC against rare onychomycosis pathogens (CLSI M 38-A)", "assay_type": "cell-based", "conditions": "3 isolates; NB-002 as μg CPC/ml", "from_the_text": "as §1"}, "Curvularia spp.": {"system": "Curvularia spp.", "test": "MIC against rare onychomycosis pathogens (CLSI M 38-A)", "assay_type": "cell-based", "conditions": "3 isolates; NB-002 as μg CPC/ml", "from_the_text": "as §1"}, "Epicoccum nigrum": {"system": "Epicoccum nigrum", "test": "MIC against rare onychomycosis pathogens (CLSI M 38-A)", "assay_type": "cell-based", "conditions": "3 isolates; NB-002 as μg CPC/ml", "from_the_text": "as §1"}, "Paecilomyces spp.": {"system": "Paecilomyces spp.", "test": "MIC against rare onychomycosis pathogens (CLSI M 38-A)", "assay_type": "cell-based", "conditions": "4 isolates; NB-002 as μg CPC/ml", "from_the_text": "as §1"}, "Phoma sp.": {"system": "Phoma sp.", "test": "MIC against rare onychomycosis pathogens (CLSI M 38-A)", "assay_type": "cell-based", "conditions": "3 isolates; NB-002 as μg CPC/ml", "from_the_text": "as §1"}, "Scedosporium spp.": {"system": "Scedosporium spp.", "test": "MIC against rare onychomycosis pathogens (CLSI M 38-A)", "assay_type": "cell-based", "conditions": "5 isolates; NB-002 as μg CPC/ml", "from_the_text": "as §1"}, "Trichophyton soundanense": {"system": "Trichophyton soundanense", "test": "MIC against rare onychomycosis pathogens (CLSI M 38-A)", "assay_type": "cell-based", "conditions": "3 isolates; NB-002 as μg CPC/ml", "from_the_text": "as §1"}, "Trichophyton verrucosum": {"system": "Trichophyton verrucosum", "test": "MIC against rare onychomycosis pathogens (CLSI M 38-A)", "assay_type": "cell-based", "conditions": "3 isolates; NB-002 as μg CPC/ml", "from_the_text": "as §1"}, "Epidermophyton floccosum [4]": {"system": "Epidermophyton floccosum", "test": "microbe, parasite or virus in culture", "assay_type": "cell-based", "conditions": "read-out: Final MIC", "experimental": "(§2) Phenotypically resistant isolates were tested for MICs and compared to parental MICs."}, "[5]": {"system": "Trichophyton mentagrophytes", "test": "microbe, parasite or virus in culture", "assay_type": "cell-based", "experimental": "as §2"}, "Trichophyton rubrum [6]": {"system": "Trichophyton rubrum", "test": "microbe, parasite or virus in culture", "assay_type": "cell-based", "experimental": "as §2"}, "T. rubrum": {"system": "T. rubrum", "test": "Time-kill experiments on mycelia and microconidia", "assay_type": "cell-based, Trichophyton rubrum", "conditions": "16×MIC, up to 24 hours, nongrowth conditions (FIG. 10)", "experimental": "Time-kill experiments. […] Part of the conidial suspension was pelleted and resuspended in RPMI 1640 medium and grown for 16-18 hours overnight at room temperature to allow germination of microconidia. After germination, the hyphae were collected by centrifugation and resuspended in distilled water. […] Colony-forming units were counted after four days of incubation at 35° C."}, "[7]": {"system": "Trichophyton mentagrophytes", "assay_type": "cell-based", "conditions": "10^7 conidia plated; NBD012-d; drug plate 0.0625 μg/ml"}, "Trichophyton rubrum [8]": {"system": "Trichophyton rubrum", "assay_type": "cell-based", "conditions": "10^7 conidia plated; NBD031-c; drug plate 0.125 μg/ml"}, "[9]": {"conditions": "n = 14 isolates, NB-002 as μg CPC/ml"}, "[10]": {"conditions": "T. tonsurans (n = 6), NB-002 as μg CPC/ml"}, "[11]": {"conditions": "T. tonsurans n = 10 (tinea capitis species)"}, "[12]": {"conditions": "M. canis (n = 5), NB-002 as μg CPC/ml"}, "[13]": {"conditions": "M. canis n = 10 (tinea capitis species)"}, "[14]": {"conditions": "Azole-Resistant isolates (n = 24)"}, "[15]": {"conditions": "Azole-Susceptible isolates (n = 10)"}}, "note": "Read-outs that look alike come from different tables or passages of the source.", "data": [{"smiles": "CN(C/C=C/C#CC(C)(C)C)Cc1cccc2ccccc12", "note": "[Terbinafine]", "values": [{"measurement": "MIC90", "setting": "[1]; Trichophyton mentagrophytes", "result": 0.125, "unit": "µg/mL"}, {"measurement": "MIC50", "setting": "[1]; Trichophyton mentagrophytes, read-out: MIC50", "result": 0.0313, "unit": "µg/mL"}, {"measurement": "MFC50", "setting": "[1]; [9]", "result": 0.25, "unit": "µg/mL"}, {"measurement": "MFC90", "setting": "[1]; [9]", "result": ">1", "unit": "µg/mL"}, {"measurement": "MIC range", "setting": "[1]; [9]", "result": "0.0313 to 0.25", "unit": "µg/mL"}, {"measurement": "MFC Range", "setting": "Epidermophyton floccosum [2]", "result": "0.0313 to 1", "unit": "µg/mL"}, {"measurement": "MIC range", "setting": "Epidermophyton floccosum [2]", "result": "0.0625 to 0.25", "unit": "µg/mL"}, {"measurement": "MFC Range", "setting": "Trichophyton tonsurans; [10]", "result": "0.06 to 0.12", "unit": "µg/mL"}, {"measurement": "MIC range", "setting": "Trichophyton tonsurans; [10]", "result": "0.008 to 0.015", "unit": "µg/mL"}, {"measurement": "MIC50", "setting": "Trichophyton tonsurans; [11]", "result": 0.016, "unit": "µg/mL"}, {"measurement": "MIC90", "setting": "Trichophyton tonsurans; [11]", "result": 0.016, "unit": "µg/mL"}, {"measurement": "MIC range", "setting": "Trichophyton tonsurans; T. tonsurans n = 10 (tinea capitis species), in µg/mL", "result": "0.008-0.016"}, {"measurement": "MFC Range", "setting": "Microsporum canis; [12]", "result": "0.06 to 0.12", "unit": "µg/mL"}, {"measurement": "MIC range", "setting": "Microsporum canis; [12]", "result": "0.004 to 0.03", "unit": "µg/mL"}, {"measurement": "MIC50", "setting": "Microsporum canis; [13]", "result": 0.06, "unit": "µg/mL"}, {"measurement": "MIC90", "setting": "Microsporum canis; [13]", "result": 0.06, "unit": "µg/mL"}, {"measurement": "MIC range", "setting": "Microsporum canis; M. canis n = 10 (tinea capitis species), in µg/mL", "result": 0.06}, {"measurement": "MFC90", "setting": "[3]; [14]", "result": ">1", "unit": "µg/mL"}, {"measurement": "MFC90", "setting": "[3]; [15]", "result": ">1", "unit": "µg/mL"}, {"measurement": "MIC90", "setting": "[3]; [14]", "result": "> 1", "unit": "µg/mL"}, {"measurement": "MIC90", "setting": "[3]; [15]", "result": "> 1", "unit": "µg/mL"}, {"measurement": "MIC50", "setting": "T. violaceum", "result": 0.03, "unit": "µg/mL"}, {"measurement": "MIC90", "setting": "T. violaceum", "result": 0.03, "unit": "µg/mL"}, {"measurement": "MIC range", "setting": "T. violaceum; in µg/mL", "result": "0.008-0.03"}, {"measurement": "MIC50", "setting": "M. audouinii", "result": 0.06, "unit": "µg/mL"}, {"measurement": "MIC90", "setting": "M. audouinii", "result": 0.06, "unit": "µg/mL"}, {"measurement": "MIC range", "setting": "M. audouinii; in µg/mL", "result": "0.03-0.06"}, {"measurement": "MIC range", "setting": "Acremonium spp.", "result": "0.125 to 1", "unit": "µg/mL"}, {"measurement": "MIC range", "setting": "Alternaria spp.", "result": "1 to 2", "unit": "µg/mL"}, {"measurement": "MIC range", "setting": "Aspergillus spp.", "result": "0.03 to 0.25", "unit": "µg/mL"}, {"measurement": "MIC range", "setting": "Chaetomium spp.", "result": "1 to 2", "unit": "µg/mL"}, {"measurement": "MIC range", "setting": "Curvularia spp.", "result": "0.03 to 1", "unit": "µg/mL"}, {"measurement": "MIC range", "setting": "Epicoccum nigrum", "result": "0.03 to 0.06", "unit": "µg/mL"}, {"measurement": "MIC range", "setting": "Paecilomyces spp.", "result": "0.25 to 0.5", "unit": "µg/mL"}, {"measurement": "MIC range", "setting": "Phoma sp.", "result": 0.03, "unit": "µg/mL"}, {"measurement": "MIC range", "setting": "Scedosporium spp.", "result": ">2", "unit": "µg/mL"}, {"measurement": "MIC range", "setting": "Trichophyton soundanense", "result": "≦0.004 ug/ml"}, {"measurement": "MIC range", "setting": "Trichophyton verrucosum", "result": "≦0.004-0.015 ug/ml"}, {"measurement": "MIC", "setting": "Epidermophyton floccosum [4]", "result": 0.016, "unit": "µg/mL"}, {"measurement": "MIC", "setting": "[5]; read-out: Final MIC, isolate NBD012-a, selected on NB-002 drug plate 8 μg/ml", "result": 0.031, "unit": "µg/mL"}, {"measurement": "MIC", "setting": "[5]; read-out: Final MIC, isolate NBD012-b, selected on NB-002 drug plate 16 μg/ml", "result": 0.031, "unit": "µg/mL"}, {"measurement": "MIC", "setting": "[5]; read-out: Final MIC, isolate NBD012-c, selected on NB-002 drug plate 32 μg/ml", "result": 0.016, "unit": "µg/mL"}, {"measurement": "MIC", "setting": "[5]; read-out: Final MIC, isolate NBD012-d, selected on terbinafine drug plate 0.0625 μg/ml", "result": 0.031, "unit": "µg/mL"}, {"measurement": "MIC", "setting": "[5]; read-out: Final MIC, isolate NBD013-a, selected on itraconazole drug plate […]", "result": 0.016, "unit": "µg/mL"}, {"measurement": "MIC", "setting": "[5]; read-out: Final MIC, isolate NBD014-a, selected on NB-002 drug plate 32 μg/ml", "result": 0.016, "unit": "µg/mL"}, {"measurement": "MIC", "setting": "Trichophyton rubrum [6]; read-out: Final MIC, isolate NBD031-a, selected on NB-002 drug plate 16 μg/ml", "result": 0.016, "unit": "µg/mL"}, {"measurement": "MIC", "setting": "Trichophyton rubrum [6]; read-out: Final MIC, isolate NBD031-b, selected on itraconazole drug plate 0.125 μg/ml", "result": 0.016, "unit": "µg/mL"}, {"measurement": "MIC", "setting": "Trichophyton rubrum [6]; read-out: Final MIC, isolate NBD031-c, selected on terbinafine drug plate 0.125 μg/ml", "result": 0.016, "unit": "µg/mL"}, {"measurement": "reduction of colony counts / activity on mycelia and microconidia", "setting": "T. rubrum", "result": "no activity"}, {"measurement": "# CFU recovered", "setting": "[7]", "result": 2}, {"measurement": "# CFU recovered", "setting": "Trichophyton rubrum [8]", "result": 1}]}]}
